Results as given in US20190380965A1 (priority 2018, published 2019).
Like-named read-outs stand apart in the source and are kept apart here.

Type: physicochemical
Conditions: for drug dissolved in water: 500 mg flucytosine added to 10 mL water
Method: The powder and granule pharmaceutical compositions of the present invention dissolve or suspend when added to water quickly. This pharmaceutical composition is therefore termed as “quick water-dispersing”. The term “quick” herein is defined as less than 2 to 3 minutes when shaken gently. In other words, when the granules are added to water, and gently mixed, a suspension is formed in less than 2 to 3 minutes. The “quick water-dispersing” property was achieved by selecting a correct particle size of suspending agent(s) which is the novelty of this invention. The suspension is achieved by simple mixing of powder in water—without use of complex instruments which are available in the home-environment to patients. […] After reaching the gastro-intestinal tract, the remaining drug dissolves. The pharmaceutical compositions according to the present invention provide for an immediate release of the Flucytosine from the dosage form.
USP II apparatus were used and UV-visible spectrometer was used for quantification of Flucytosine from dissolution. […] When we combine other antifungal agents in this formulation, the dissolved fraction of flucytosine will change.

drug dissolved in water: about 150 mg
drug dissolved in water (listed as flucytosine): 150 mg
water needed to dissolve the drug (dose of 500 mg flucytosine): 33.3 mL
SMILES: Nc1nc(=O)[nH]cc1F [Flucytosine, 5-fluorocytosine]
